# ChEMBL document CHEMBL5385901, “Drug repurposing of propafenone to discover novel anti-tumor agents by impairing homologous recombination to delay DNA damage recovery of rare disease conjunctival melanoma” (Eur J Med Chem, 2023)
# Active and inactive are the calls of the source. The rule behind the calls is not given here.
# How the values were obtained:
# [1] = biological target: T1, Double-strand break repair protein MRE11 (Homo sapiens, UniProt P49959); assay: Binding affinity to his-tagged recombinant human MRE11 assessed as dissociation constant by MST assay
# T1 sequence (P49959 whole entry): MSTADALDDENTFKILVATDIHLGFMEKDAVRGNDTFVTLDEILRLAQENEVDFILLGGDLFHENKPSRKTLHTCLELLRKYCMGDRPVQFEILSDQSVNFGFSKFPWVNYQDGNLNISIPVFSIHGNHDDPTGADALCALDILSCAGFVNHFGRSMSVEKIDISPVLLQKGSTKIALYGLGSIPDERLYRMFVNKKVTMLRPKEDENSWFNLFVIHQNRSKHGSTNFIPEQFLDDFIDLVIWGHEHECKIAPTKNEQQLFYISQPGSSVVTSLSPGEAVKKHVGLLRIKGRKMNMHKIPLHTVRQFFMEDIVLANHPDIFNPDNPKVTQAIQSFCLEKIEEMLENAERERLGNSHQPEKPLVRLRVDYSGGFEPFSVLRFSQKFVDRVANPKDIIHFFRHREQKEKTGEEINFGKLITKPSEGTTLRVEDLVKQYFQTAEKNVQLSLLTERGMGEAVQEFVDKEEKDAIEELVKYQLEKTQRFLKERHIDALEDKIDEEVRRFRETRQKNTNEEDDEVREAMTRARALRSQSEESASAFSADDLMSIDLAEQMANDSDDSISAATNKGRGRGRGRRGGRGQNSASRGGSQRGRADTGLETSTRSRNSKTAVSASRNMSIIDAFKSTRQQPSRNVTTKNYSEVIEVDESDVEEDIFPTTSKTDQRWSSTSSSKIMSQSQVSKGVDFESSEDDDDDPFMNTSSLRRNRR
# CRMM-1 [2] = assay: Induction of apoptosis in human CRMM-1 cells at 3 uM measured after 48 hrs by DAPI/Annexin-V-PE staining based flow cytometry relative to control; type: functional
# CRMM-1 [3] = assay: Inhibition of cell migration in human CRMM-1 cells assessed as migration rate at 0.3 uM measured after 72 hrs by wound healing assay (reference value: 70 %); type: functional; parameters: scale not given: the % may be the effect or the level left
# CRMM-1 [4] = assay: Antiproliferative activity against human CRMM-1 cells assessed as cell growth inhibition incubated for 72 hrs by CCK8 assay; type: functional, cell-based; conditions: CRMM-1, 72 h
# [5] = Inhibition of homologous recombination in human CRMM-1 cells at 10 uM incubated for 12 hrs by real-time PCR analysis relative to control; type: functional
# CRMM-2 [6] = assay: Antiproliferative activity against human CRMM-2 cells assessed as cell growth inhibition incubated for 72 hrs by CCK8 assay; type: functional, cell-based; conditions: CRMM-2, 72 h
# [7] = Antiproliferative activity against human CM-AS16 cells assessed as cell growth inhibition incubated for 72 hrs by CCK8 assay; type: functional, cell-based; conditions: CM-AS16, 72 h
# [8] = Antiproliferative activity against human HL7702 cells assessed as cell growth inhibition incubated for 72 hrs by CCK8 assay; type: toxicity, cell-based; conditions: HL7702 (L02) cells
# [9] = Antiproliferative activity against human PIG1 cells assessed as cell growth inhibition incubated for 72 hrs by CCK8 assay; type: toxicity, cell-based
# [10] = Antiproliferative activity against human CM2005.1 cells assessed as cell growth inhibition incubated for 72 hrs by CCK8 assay; type: functional, cell-based; conditions: CM2005.1, 72 h
# CRMM-1 [11] = assay: Induction of apoptosis in human CRMM-1 cells at 0.3 to 3 uM measured after 48 hrs by DAPI/Annexin-V-PE staining based flow cytometry; type: functional, cell-based; conditions: dose 0.3-3 µM
# [12] = Cytotoxicity against human CM-AS16 cells assessed as cell growth inhibition incubated for 72 hrs by CCK8 assay; type: functional, cell-based; conditions: CM-AS16, 72 h
# CRMM-2 [13] = assay: Cytotoxicity against human CRMM-2 cells assessed as cell growth inhibition incubated for 72 hrs by CCK8 assay; type: functional, cell-based; conditions: CRMM-2, 72 h
# CM-AS16 [14] = assay: Effect on Fanconi anemia pathway in human CM-AS16 cells harboring BRAF mutation at 20 uM by KEGG analysis; type: functional, cell-based
# CRMM-1 [15] = assay: Inhibition of cell migration in human CRMM-1 cells assessed as migration rate at 3 uM measured after 72 hrs by wound healing assay (reference value: 70 %); type: functional; parameters: scale not given: the % may be the effect or the level left
# CM-AS16 [16] = assay: Effect on DNA repair genes in human CM-AS16 cells harboring BRAF mutation at 20 uM by GO enrichment analysis; type: functional, cell-based
# CRMM-1 [17] = assay: Induction of apoptosis in human CRMM-1 cells at 40 uM measured after 48 hrs by DAPI/Annexin-V-PE staining based flow cytometry relative to control; type: functional
# [18] = Cytotoxicity against human PIG1 cells at 20 uM incubated for 72 hrs by CCK8 assay relative to control; type: toxicity, cell-based; conditions: read-out: INH
# CM-AS16 [19] = assay: Effect on DNA integrity checkpoint genes in human CM-AS16 cells harboring BRAF mutation at 20 uM by GO enrichment analysis; type: functional, cell-based
# [20] = Cytotoxicity against human CM2005.1 cells assessed as cell growth inhibition incubated for 72 hrs by CCK8 assay; type: functional, cell-based; conditions: CM2005.1, 72 h
# CRMM-1 [21] = assay: Cytotoxicity against human CRMM-1 cells assessed as cell growth inhibition incubated for 72 hrs by CCK8 assay; type: functional, cell-based; conditions: CRMM-1, 72 h
# CRMM-1 [22] = assay: Inhibition of homologous recombination in human CRMM-1 cells at 10 uM incubated for 12 hrs by real-time PCR analysis; type: functional, cell-based
# CRMM-1 [23] = assay: Induction of DNA damage in human CRMM-1 cells assessed as decrease in NBS1 level measured after 48 hrs by immunoblot analysis; type: functional, cell-based; conditions: dose <= 10.0 µM
# CRMM-2 [24] = assay: Induction of DNA double strand breaks in human CRMM-2 cells assessed as gamma-H2AX accumulation upto 10 uM by immunoblot analysis; type: functional, cell-based
# CRMM-1 [25] = assay: Induction of DNA double strand breaks in human CRMM-1 cells assessed as gamma-H2AX accumulation upto 10 uM by immunoblot analysis; type: functional, cell-based
# CRMM-2 [26] = assay: Induction of DNA damage in human CRMM-2 cells assessed as decrease in RAD50 level measured after 48 hrs by immunoblot analysis; type: functional, cell-based; conditions: dose <= 10.0 µM
# CRMM-1 [27] = assay: Induction of DNA damage in human CRMM-1 cells assessed as increase in p53 level upto 10 uM by immunoblot analysis; type: functional, cell-based
# CRMM-1 [28] = assay: Induction of DNA damage in human CRMM-1 cells assessed as decrease in RAD51 level upto 10 uM measured after 48 hrs by immunoblot analysis; type: functional, cell-based
# CRMM-1 [29] = assay: Induction of DNA damage in human CRMM-1 cells assessed as decrease in MRE11 level measured after 48 hrs by immunoblot analysis; type: functional, cell-based; conditions: dose <= 10.0 µM
# CRMM-2 [30] = assay: Induction of DNA double strand breaks in human CRMM-2 cells assessed as gamma-H2AX accumulation at 1 uM measured after 24 hrs immunofluorescence based confocal microscopy; type: functional, cell-based
# CRMM-2 [31] = assay: Induction of DNA damage in human CRMM-2 cells assessed as decrease in […] level upto 10 uM measured after 48 hrs by immunoblot analysis; type: functional, cell-based
# CRMM-2 [32] = assay: Induction of DNA damage in human CRMM-2 cells assessed as decrease in MRE11 level measured after 48 hrs by immunoblot analysis; type: functional, cell-based; conditions: dose <= 10.0 µM
# CRMM-1 [33] = assay: Induction of DNA damage in human CRMM-1 cells assessed as decrease in RAD50 level measured after 48 hrs by immunoblot analysis; type: functional, cell-based; conditions: dose <= 10.0 µM
# CRMM-2 [34] = assay: Induction of DNA damage in human CRMM-2 cells assessed as decrease in NBS1 level measured after 48 hrs by immunoblot analysis; type: functional, cell-based; conditions: dose <= 10.0 µM
# [35] = biological target: T2, Double-strand break repair protein MRE11 (Homo sapiens) (UniProt P49959); assay: Inhibition of his-tagged human MRE11 endonuclease activity using phage X174 circular ssDNA as substrate at 10 to 300 uM incubated for 30 mins by chemiluminescence based analysis; conditions: dose 10-300 µM
# T2 sequence (whole entry): T1 sequence (P49959 whole entry)
# CRMM-1 [36] = assay: Induction of apoptosis in human CRMM-1 cells at 0.1 uM measured after 48 hrs by DAPI/Annexin-V-PE staining based flow cytometry; type: functional, cell-based
# CRMM-1 [37] = assay: Induction of DNA damage in human CRMM-1 cells assessed as decrease in […] level upto 10 uM measured after 48 hrs by immunoblot analysis; type: functional, cell-based
# CRMM-2 [38] = assay: Induction of DNA damage in human CRMM-2 cells assessed as decrease in RAD51 level upto 10 uM measured after 48 hrs by immunoblot analysis; type: functional, cell-based
# CRMM-2 [39] = assay: Induction of DNA damage in human CRMM-2 cells assessed as increase in p53 level upto 10 uM by immunoblot analysis; type: functional, cell-based
# CRMM-1 [40] = assay: Induction of DNA double strand breaks in human CRMM-1 cells assessed as gamma-H2AX accumulation at 1 uM measured after 24 hrs immunofluorescence based confocal microscopy; type: functional, cell-based
Compound,IC50 (CRMM-1 [4]) [µM],inhibition at 10 µM [5] [%],IC50 (CRMM-2 [6]) [µM],IC50 [7] [µM],IC50 at 72 h [8] [µM],IC50 at 72 h [9] [µM],IC50 [10] [µM],inhibition (CRMM-1 [22]),other results
O=C(CCCc1ccccc1)c1c(OCCCN2CCNCC2)ccc2ccccc12 [listing 1 of 2 here],1.3,89.5,0.7,2.9,25.6,32.9,1,,Kd [1]: 4.3 µM; Activity (CRMM-1 [2]): 80%; Activity (CRMM-1 [3]): 45%
CCCNCC(O)COc1ccccc1C(=O)CCc1ccccc1 (configuration not stated) [PROPAFENONE],24.7,56.9,13.4,13.7,48.2,56,48.3,,"Activity (CRMM-1 [11]): Active; IC50 [12]: 13.7 µM; IC50 (CRMM-2 [13]): 13.4 µM; Activity (CM-AS16 [14]): Active; Activity (CRMM-1 [15]): 58%; Activity (CM-AS16 [16]): Active; Activity (CRMM-1 [17]): 80%; cytotoxicity at 72 h, 20 µM [18]: 26%; Activity (CM-AS16 [19]): Active; IC50 [20]: 48.3 µM; IC50 (CRMM-1 [21]): 24.7 µM"
CCCCCNCCCOc1ccccc1C(=O)CCCc1ccccc1,2.3,,1.3,5.5,2.4,1.9,3.8,inactive,
CCCN1CC(COc2ccccc2C(=O)CCc2ccccc2)OC1=O (configuration not stated),,,,> 100,,,,inactive,
C=C(CCc1ccccc1)c1ccccc1OCC(O)CNCCC (configuration not stated),6.3,,9.5,4,14.8,16.1,9.1,inactive,
CCCNCCCOc1cc2c(cc1C(=O)CCCc1ccccc1)OCCO2,5.5,,8.8,4.4,27.7,15.4,11.6,inactive,
O=C(CCCc1ccccc1)c1c(OCCCN2CCNCC2)ccc2ccccc12 [listing 2 of 2 here],,,,,,,,,Activity (CRMM-1 [23]): Dose-Dependent Effect; Activity (CRMM-2 [24]): Active; Activity (CRMM-1 [25]): Active; Activity (CRMM-1 [11]): Active; Activity (CRMM-2 [26]): Dose-Dependent Effect; Activity (CRMM-1 [27]): Active; Activity (CRMM-1 [28]): Active; Activity (CRMM-1 [29]): Dose-Dependent Effect; Activity (CRMM-2 [30]): Active; Activity (CRMM-2 [31]): Active; Activity (CRMM-2 [32]): Dose-Dependent Effect; Activity (CRMM-1 [33]): Dose-Dependent Effect; Activity (CRMM-2 [34]): Dose-Dependent Effect; inhibition [35]: Active; Activity (CRMM-1 [36]): inactive; Activity (CRMM-1 [37]): Active; Activity (CRMM-2 [38]): Active; Activity (CRMM-2 [39]): Active; Activity (CRMM-1 [40]): Active
O=C(CCCc1ccccc1)c1c(OCc2cccnc2)ccc2ccccc12,16,,48.5,,64.9,24.9,58.1,inactive,
CC(C)(C)CNCCCOc1ccc2ccccc2c1C(=O)CCCc1ccccc1,8.7,52.4,5.1,5,11.1,4,5.1,,
CCCNCC(O)COc1cccc(C(=O)CCc2ccccc2)c1 (configuration not stated),28.3,52.5,22.3,16.5,69.1,62.4,38,,
CCCCCC(O)COc1ccccc1C(=O)CCc1ccccc1 (configuration not stated),16.6,51.2,54.5,13.9,22.3,> 100,46.3,,
CCCCCCCNCC(O)COc1ccccc1C(=O)CCc1ccccc1 (configuration not stated),2.6,53.9,6.6,5.6,5.7,8.8,4.6,,
O=C(CCCc1ccccc1)c1c(OCCCN2CCC2)ccc2ccccc12,20.6,17.9,38.4,32.3,69.6,42.1,32.9,,
O=C(CCCc1ccccc1)c1c(OCCCN2CCSC2)ccc2ccccc12,10.2,72.1,6.6,9.2,51.5,29.7,11.9,,
CCCCCCNCCCOc1ccccc1C(=O)CCCc1ccccc1,6.5,57.2,1.6,5.9,10.6,9.2,15.8,,
CCCNCCCOc1cc2c(cc1C(=O)CCCc1ccccc1)OCO2,6.9,43,8.2,10.8,32.7,15.5,6.8,,
